Laboratory results: patent US7425557B2, “Inhibitors of glycogen synthase kinase 3” (Novartis Vaccines and Diagnostics, Inc., priority 1998, dated 2008)

Target: human GSK3β (Homo sapiens, UniProt P49841)
Assay: Screening for GSK3 inhibitory activity using a cell-free assay
Format: biochemical
Settings: read-out: IC50 with respect to GSK3
In short: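 Compounds in DMSO were tested against human GSK3β over a three-hour kinase reaction. Radiolabeled phosphate transferred to the peptide was captured on streptavidin plates after EDTA/ATP stop and quantified by scintillation counting. Signal was plotted versus compound concentration.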

Chain of human GSK3β (P49841 whole entry): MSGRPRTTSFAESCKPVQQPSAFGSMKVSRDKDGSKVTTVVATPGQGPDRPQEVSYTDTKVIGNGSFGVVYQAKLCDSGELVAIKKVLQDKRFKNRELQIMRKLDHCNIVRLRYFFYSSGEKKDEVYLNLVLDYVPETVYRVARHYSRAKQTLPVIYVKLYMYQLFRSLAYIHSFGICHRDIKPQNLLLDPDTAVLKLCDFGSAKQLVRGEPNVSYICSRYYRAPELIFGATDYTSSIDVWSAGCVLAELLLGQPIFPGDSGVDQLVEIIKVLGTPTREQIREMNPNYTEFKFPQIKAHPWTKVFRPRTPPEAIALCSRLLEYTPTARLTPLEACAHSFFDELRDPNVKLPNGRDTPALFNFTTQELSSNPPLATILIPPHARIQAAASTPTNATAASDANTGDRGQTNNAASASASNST

| SMILES | IC50 |
| --- | --- |
| NC(=O)c1ccc(-c2ccnc(NCc3cccc(C(F)(F)F)c3)n2)cc1 [4-[2-({[3-(trifluoromethyl)phenyl]methyl}amino)pyrimidin-4-yl]-benzamide] | ≤ 10 µM |
| CCOC(=O)c1cnc(NCCNc2ncc(C#N)c(N)n2)nc1-c1ccc(C#N)cc1 [ethyl 2-({2-[(4-amino-5-cyanopyrimidin-2-yl)amino]ethyl}amino)-4-(4-cyanophenyl)pyrimidine-5-carboxylate] | ≤ 1 µM |
| NC(=O)c1ccc(-c2ccnc(NCCCc3nc(Cl)c(Cl)[nH]3)n2)cc1 [4-(2-{[3-(4,5-dichloroimidazolyl)propyl]amino}pyrimidin-4-yl)benzamide] | ≤ 1 µM |
| Cc1cn(-c2ccc(NCCNc3ccc([N+](=O)[O-])c(N)n3)nc2-c2ccc(Cl)cc2Cl)cn1 [{2-[(6-amino-5-nitro(2-pyridyl))amino]ethyl}[6-(2,4-dichlorophenyl)-5-(4-methylimidazolyl)(2-pyridyl)]amine] | ≤ 1 µM |
| N#Cc1ccc(-c2nc(NCCNc3ccc([N+](=O)[O-])c(N)n3)ncc2-c2ncc[nH]2)cc1 [4-[2-({2-[(6-amino-5-nitro(2-pyridyl))amino]-ethyl}amino)-5-imidazol-2-ylpyrimidin-4-yl]benzenecarbonitrile] | ≤ 1 µM |
| O=C(O)c1c(-c2ccc([N+](=O)[O-])cc2)nc(NCCNc2ccc([N+](=O)[O-])cn2)nc1-c1ccc([N+](=O)[O-])cc1 [4,6-bis(4-nitrophenyl)-2-({2-[(5-nitro(2-pyridyl))amino]ethyl}amino)pyrimidine-5-carboxylic acid] | ≤ 10 µM |
| NC(=O)c1ccc(-c2ccnc(NCc3ccc(C(F)(F)F)cc3)n2)cc1 [4-[2-({[4-(trifluoromethyl)phenyl]methyl}amino)pyrimidin-4-yl]benzamide] | ≤ 10 µM |
| CN1CCN(c2cnc(NCCNc3ccc(C#N)cn3)nc2-c2ccc(Cl)cc2Cl)C(=O)C1 [6-[(2-{[4-(2,4-dichlorophenyl)-5-(4-methyl-2-oxo-1-piperazinyl)-2-pyrimidinyl]amino}ethyl)amino]-nicotinonitrile] | ≤ 10 µM |
| FC(F)(F)Oc1ccc(-c2ccnc(NCCNc3ccccn3)n2)cc1 [[2-(2-pyridylamino)ethyl]{4-[4-(trifluoromethoxy)-phenyl]pyrimidin-2-yl}amine] | ≤ 10 µM |
| Nc1nc(NCCNc2ncc(N3C(=O)c4cccnc4C3=O)c(-c3ccc(Cl)cc3Cl)n2)ccc1[N+](=O)[O-] | ≤ 1 µM |
| CCOC(=O)c1c(CC)nc(NCCNc2ccc(C#N)cn2)nc1-c1ccc(C(N)=O)cc1 [ethyl 4-(4-carbamoylphenyl)-2-({2-[(5-cyano(2-pyridyl))amino]ethyl}amino)-6-ethylpyrimidine-5-carboxylate] | ≤ 1 µM |
| Fc1ccc(-c2ccnc(NCCNc3ccccn3)n2)cc1F [[4-(3,4-difluorophenyl)pyrimidin-2-yl][2-(2-pyridylamino)-ethyl]amine] | ≤ 10 µM |
| CCOC(=O)c1cnc(NCCc2ccccn2)nc1-c1ccc(C#N)cc1 [ethyl 4-(4-cyanophenyl)-2-[(2-(2-pyridyl)ethyl)amino]-pyrimidine-5-carboxylate] | ≤ 10 µM |
| CN(C)CCc1noc(-c2cnc(NCCNc3ccc([N+](=O)[O-])c(N)n3)nc2-c2ccc(Cl)cc2Cl)n1 [(2-{5-[2-({2-[(6-amino-5-nitro(2-pyridyl))amino]-ethyl}amino)-4-(2,4-dichlorophenyl)pyrimidin-5-yl](1,2,4-oxadiazol-3-yl)}ethyl)-dimethylamine] | ≤ 1 µM |
| CN1CC(=O)N(c2cnc(NCCNc3ccc([N+](=O)[O-])cn3)nc2-c2ccc(Cl)cc2Cl)C(=O)C1 [1-[4-(2,4-dichlorophenyl)-2-({2-[(5-nitro(2-pyridyl))amino]ethyl}amino)pyrimidin-5-yl]-4-methylpiperazine-2,6-dione] | ≤ 1 µM |
| Nc1nc(NCCNc2ncc(C(=O)O)c(-c3ccc(Cl)cc3Cl)n2)ccc1[N+](=O)[O-] [2-({2-[(6-amino-5-nitro(2-pyridyl))amino]ethyl}amino)-4-(2,4-dichlorophenyl)pyrimidine-5-carboxylic acid] | ≤ 1 µM |
| Oc1ccc(-c2ccnc(NCCCc3nc(Cl)c(Cl)[nH]3)n2)cc1 [4-(2-{[3-(4,5-dichloroimidazolyl)propyl]amino}pyrimidin-4-yl)phenol] | ≤ 1 µM |
| O=C(O)c1c(-c2ccc([N+](=O)[O-])cc2)nc(NCCNc2ccc([N+](=O)[O-])cn2)nc1C1CCCCC1 [4-cyclohexyl-2-({2-[(5-nitro(2-pyridyl))amino]ethyl}amino)-6-(4-nitrophenyl)pyrimidine-5-carboxylic acid] | ≤ 10 µM |

Continued, values first:

| IC50 | SMILES |
| --- | --- |
| ≤ 1 µM | N#Cc1cnc(NCCNc2nccc(-c3ccc(C(N)=O)cc3)n2)nc1N [4-[2-({2-[(4-amino-5-cyano-pyrimidin-2-yl)amino]ethyl}amino)pyrimidin-4-yl]benzamide] |
| ≤ 10 µM | CC(=O)Nc1cccc(-c2cccc(CNc3nccc(-c4ccc(C(N)=O)cc4)n3)c2)c1 [4-{2-[({3-[3-(acetylamino)phenyl]phenyl}methyl)amino]pyrimidin-4-yl}benzamide] |
| ≤ 10 µM | NS(=O)(=O)c1ccc(CNC(=O)c2ccc(-c3ccnc(NCCNc4ccc([N+](=O)[O-])cn4)n3)cc2)cc1 [{4-[2-({2-[(5-nitro(2-pyridyl))-amino]ethyl}amino)pyrimidin-4-yl]phenyl}-N-[(4-sulfamoylphenyl)methyl]carboxamide] |
| ≤ 10 µM | O=C(NCc1cccc(F)c1)c1ccc(-c2ccnc(NCCNc3ccc([N+](=O)[O-])cn3)n2)cc1 [N-[(3-fluorophenyl)methyl]{4-[2-({2-[(5-nitro(2-pyridyl))amino]ethyl}amino)pyrimidin-4-yl]-phenyl}carboxamide] |
| ≤ 10 µM | O=C(NCc1cccc(Cl)c1)c1ccc(-c2ccnc(NCCNc3ccc([N+](=O)[O-])cn3)n2)cc1 [N-[(3-chlorophenyl)methyl]{4-[2-({2-[(5-nitro(2-pyridyl))amino]ethyl}amino)pyrimidin-4-yl]-phenyl}carboxamide] |
| ≤ 10 µM | O=C(O)c1c(-c2ccncc2)nc(NCCNc2ccc([N+](=O)[O-])cn2)nc1-c1ccc([N+](=O)[O-])cc1 [2-({2-[(5-nitro(2-pyridyl))amino]ethyl}amino)-6-(4-nitrophenyl)-4-(4-pyridyl)pyrimidine-5-carboxylic acid] |
| ≤ 1 µM | CS(=O)(=O)c1cnc(NCCNc2ccc([N+](=O)[O-])cn2)nc1-c1ccc(C#N)cc1 [4-[5-(methylsulfonyl)-2-({2-[(5-nitro(2-pyridyl))amino]ethyl}amino)pyrimidin-4-yl]benzenecarbonitrile] |
| ≤ 10 µM | CCOC(=O)c1cnc(NCCNc2ccc([N+](=O)[O-])cn2)nc1NCc1cccc(Br)c1 [ethyl 4-{[(3-bromophenyl)methyl]amino}-2-({2-[(5-nitro(2-pyridyl))amino]ethyl}amino)pyrimidine-5-carboxylate] |
| ≤ 1 µM | CCOC(=O)c1cnc(NCCNc2ccc([N+](=O)[O-])cn2)nc1-c1ccc(SC)cc1 [ethyl 4-(4-methylthiophenyl)-2-({2-[(5-nitro(2-pyridyl))amino]ethyl}amino)pyrimidine-5-carboxylate] |
| ≤ 10 µM | Cc1nc(NCCNc2ccc([N+](=O)[O-])cn2)ncc1C(=O)NC(Cc1ccccc1)C(N)=O (stereo not shown) [N-(1-carbamoyl-2-phenylethyl)[4-methyl-2-({2-[(5-nitro(2-pyridyl))amino]ethyl}amino)pyrimidin-5-yl]carboxamide] |
| ≤ 10 µM | O=[N+]([O-])c1ccc(NCCNc2nccc(-c3cccc(O)c3)n2)nc1 [3-[2-({2-[(5-nitro-2-pyridyl)amino]ethyl}-amino)pyrimidin-4-yl]phenol] |
| ≤ 1 µM | Cc1noc(-c2cnc(NCCNc3ccc([N+](=O)[O-])cn3)nc2-c2ccc(C#N)cc2)n1 [4-[5-(3-methyl(1,2,4-oxadiazol-5-yl))-2-({2-[(5-nitro(2-pyridyl))amino]-ethyl}amino)pyrimidin-4-yl]benzenecarbonitrile] |
| ≤ 10 µM | NC(=O)c1ccc(-c2ccnc(NCCCOc3cccc(Br)c3)n2)cc1 [4-(2-{[3-(3-bromophenoxy)propyl]-amino}pyrimidin-4-yl)benzamide] |
| ≤ 1 µM | CCc1cnc(NCCNc2ccc([N+](=O)[O-])cn2)nc1-c1ccc(Cl)cc1Cl [[4-(2,4-dichlorophenyl)-5-ethylpyrimidin-2-yl]{2-[(5-nitro(2-pyridyl))amino]ethyl}amine] |
| ≤ 1 µM | N#Cc1ccc(-c2nc(NCCNc3ccc([N+](=O)[O-])cn3)nc(-c3ccccc3)c2C(=O)O)cc1 [4-(4-cyanophenyl)-2-({2-[(5-nitro(2-pyridyl))amino]ethyl}amino)-6-phenylpyrimidine-5-carboxylic acid] |
| ≤ 10 µM | CCOC(=O)c1cnc(NCCNc2ccccn2)nc1-c1cccc([N+](=O)[O-])c1 [ethyl 4-(3-nitrophenyl)-2-{[2-(2-pyridylamino)ethyl]amino}pyrimidine-5-carboxylate] |
| ≤ 10 µM | NC(=O)c1ccc(-c2ccnc(NCCc3ccc(F)cc3)n2)cc1 [4-(2-{[2-(4-fluorophenyl)ethyl]amino}pyrimidin-4-yl)benzamide] |
| ≤ 1 µM | NC(=O)c1ccc(-c2ccnc(NCCNc3ccccn3)n2)cc1 [4-(2-{[2-(2-pyridylamino)ethyl]-amino}pyrimidin-4-yl)benzamide] |
| ≤ 10 µM | O=C(NCc1cccnc1)c1ccc(-c2ccnc(NCCNc3ccc([N+](=O)[O-])cn3)n2)cc1 [{4-[2-({2-[(5-nitro(2-pyridyl))amino]ethyl}amino)pyrimidin-4-yl]phenyl}-N-(3-pyridylmethyl)carboxamide] |
| ≤ 1 µM | NC(=O)c1ccc(-c2ccnc(NCCNc3ccc(C(N)=S)cn3)n2)cc1 [4-{2-[(2-{[5-(aminothioxomethyl)-2-pyridyl]amino}ethyl)amino]pyrimidin-4-yl}benzamide] |
| ≤ 10 µM | CCOC(=O)c1cnc(NCCNc2ccc([N+](=O)[O-])c(NCc3ccccc3)n2)nc1-c1ccc(C#N)cc1 |
| ≤ 10 µM | Cc1cccc(CNC(=O)c2ccc(-c3ccnc(NCCNc4ccc([N+](=O)[O-])cn4)n3)cc2)c1 [N-[(3-methylphenyl)methyl){4-[2-({2-[(5-nitro(2-pyridyl))amino]ethyl}amino)pyrimidin-4-yl]phenyl}carboxamide] |
